This is an account of results in patent US20060014811A1, “Medicament for treatment of cancer” (priority 2002, published 2006).

As a reminder, the IC50 is the concentration that inhibits the measured activity by half. The melting point is the temperature of the solid-liquid transition.

For series [1], the system named is MIA PACA-2: Human pancreatic cancer. The experiment in a line: Inhibitory test against cancer cell proliferation (3). Format: cell-based. The following applies: Test Example 6, 50% inhibitory concentration against proliferation, similar operations to Test Example 1. The procedure:
(§1) Cancer cells (Jurkat: Human T-cell leukemia, MIA PACA-2: Human pancreatic cancer, RD: Human rhabdomyoma, HepG2: Human liver cancer) were cultured for 3 days in the presence or absence of a test compound using RPMI1640 medium containing 10% bovine fetal serum or Dalbecco's Modified Eagle's Medium containing 10% FBS. The number of living cells was counted by MTS method, and amounts of cell proliferation were compared and inhibitory ratios were measured. In the table below, 50% inhibitory concentrations against the proliferation of each cancer cell are shown.
(§2) Similar operations to Test Example 1 were carried out using cancer cells (HepG2: human liver cancer, A^549: human lung cancer, MIA PACA-2: human pancreatic cancer). In the table below, 50% inhibitory concentrations against proliferation of each cancer cell are shown.

Series [2] relates to A549: human lung cancer. The description is as above. Format: cell-based. The following applies: Test Example 6, 50% inhibitory concentration against proliferation, similar operations to Test Example 1. On the procedure: as §1, §2
Series [3] concerns HepG2: Human liver cancer. The series is described as above. Format: cell-based. As to conditions: Test Example 6, 50% inhibitory concentration against proliferation, similar operations to Test Example 1. On the procedure: as §1, §2
Series [4] deals with B16 melanoma. The experiment in a line: Metastasis inhibitory test using mouse bearing B16 melanoma. Format: in vivo, B6 mouse. Also noted: key to Colony Formation (melanoma colonies in the lungs vs control): ±: Same as control; +: Inhibited; ++: Remarkably inhibited; +++: No Formation. The following applies: 30 mg/kg intraperitoneal once a day for 5 weeks, B16 melanoma cells inoculated by tail vein. The procedure:
B16 melanoma cells (5×10^5 cells/mouse) were inoculated from a tail vein of a B6 mouse of the same kind by intravenous injection, and a test substance was administered once a day for 5 weeks from the day of the inoculation by intraperitoneal injection. Then, the test animal was sacrificed and the lungs were removed. The number of colonies of melanoma in the lungs was compared with that in the control (test substance administered at 0 mg/kg).

The subject of series [5] is MIA PACA-2: Human pancreatic cancer. As to the kind of experiment: Inhibitory test against cancer cell proliferation (1), MTS method. The following applies: 50% inhibitory concentration against proliferation, cultured for 3 days. Format: cell-based. The procedure:
as §1

Series [6] relates to HepG2: Human liver cancer. Described as above. Format: cell-based. The following applies: 50% inhibitory concentration against proliferation, cultured for 3 days. The procedure: as §1
In series [7] the test system is Jurkat: Human T-cell leukemia. The description is as above. Format: cell-based. The following applies: 50% inhibitory concentration against proliferation, cultured for 3 days. On the procedure: as §1
In series [8] the test system is RD: Human rhabdomyoma. The series is described as above. Format: cell-based. The following applies: 50% inhibitory concentration against proliferation, cultured for 3 days. The procedure: as §1

Take `O=C(Nc1cc(C(F)(F)F)cc(C(F)(F)F)c1)c1cc(Cl)ccc1O` [compound 4, N-[3,5-bis(trifluoromethylphenyl)]-5-chloro-2-hydroxybenzamide]: the IC50 in series [1] is 0.82 µM; in [2], 4.03 µM; in [3] it was 0.72 µM; in series [5], 0.65 µM; in [6] it was 0.69 µM; in series [7] it was 0.74 µM. The molecule also displayed an IC50 in [8] of 1.03 µM. Also, the “Colony Formation (melanoma colonies in the lungs vs control)” value in series [4] is on record as “++”. Also, the “Survival Ratio after 5 weeks(%)” value in [4] (control 50%) was determined as 100%.
For `CC(C)(C)c1ccc(O)c(C(=O)Nc2cc(C(F)(F)F)cc(C(F)(F)F)c2)c1` [compound 11, N-[3,5-Bis(trifluoromethyl)phenyl]-5-[(1,1-dimethyl)ethyl]-2-hydroxybenzamide], the IC50 came to 0.78 µM in series [5] (Homo sapiens, MIA PaCa-2, 72 h); 1.82 µM in series [6] (Homo sapiens, HepG2, 72 h); 1.21 µM in series [7] (Homo sapiens, Jurkat, 72 h); 1.96 µM in series [8] (Homo sapiens, 72 h).
In the case of `O=C(Nc1cc(C(F)(F)F)cc(C(F)(F)F)c1)c1cc(-n2cccc2)ccc1O` [compound 27], the IC50 in [5] turned out to be 1.19 µM; in series [6], 1.96 µM; in [7] it was 1.2 µM; in series [8], 1.26 µM.
For the molecule `O=C(Nc1cc(C(F)(F)F)cc(C(F)(F)F)c1)c1cc(C(=O)N2CCC(Cc3ccccc3)CC2)ccc1O` [compound 40, N-[3,5-Bis(trifluoromethyl)phenyl]-2-hydroxy-5-(4-benzylpiperidine-1-carbonyl)benzamide], the melting point was in the range of 179 to 180 °C.
The same measure, in the same setting: as for `CC(=O)Oc1ccccc1C(=O)Nc1cc(Cl)cc(Cl)c1` [compound 120, 2-acetoxy-N-(3,5-dichlorophenyl)benzamide], the figure is 218 to 219 °C.
For the molecule `CC(C)(C)C(=O)c1sc(NC(=O)c2cc(Cl)ccc2O)nc1C(C)(C)C` [compound 199, 5-Chloro-N-{4-[(1,1-dimethyl)ethyl]-5-[(2,2-dimethyl)propionyl]thiazol-2-yl}-2-hydroxybenzamide], the IC50 is 0.56 µM in series [1] (Homo sapiens, MIA PaCa-2); 5.15 µM in [2] (Homo sapiens, A549); 0.59 µM in [3] (Homo sapiens, HepG2); 0.46 µM in series [5] (Homo sapiens, MIA PaCa-2, 72 h); 1.26 µM in series [6] (Homo sapiens, HepG2, 72 h); 0.44 µM in series [7] (Homo sapiens, Jurkat, 72 h). The IC50 in series [8] (Homo sapiens, 72 h) amounted to 0.57 µM.
Consider `CC(C)(C)c1nc(NC(=O)c2cc(Br)ccc2O)sc1N1CCOCC1` [compound 205, 5-Bromo-N-{4-[(1,1-dimethyl)ethyl]-5-morpholinothiazol-2-yl}-2-hydroxybenzamide], for which the IC50 in series [1] (Homo sapiens, MIA PaCa-2) is more than 10 µM; in series [2] (Homo sapiens, A549) it was more than 10 µM; in series [3] (Homo sapiens, HepG2), 4.23 µM; in series [5] (Homo sapiens, MIA PaCa-2, 72 h) it was 1.45 µM; in series [6] (Homo sapiens, HepG2, 72 h) it was 3.5 µM; in [7] (Homo sapiens, Jurkat, 72 h) it was 1.89 µM. Moreover, the IC50 in [8] (Homo sapiens, 72 h) came to 1.94 µM.
Take `CC(C)(C)c1nc(NC(=O)c2cc(Br)ccc2O)sc1N1CCN(c2ccccc2)CC1` [compound 207, 5-Bromo-N-{4-[(1,1-dimethyl)ethyl]-5-(4-phenylpiperazin-1-yl)thiazol-2-yl}-2-hydroxybenzamide]: the IC50 in series [5] (Homo sapiens, MIA PaCa-2, 72 h) amounted to 1.26 µM; in series [6] (Homo sapiens, HepG2, 72 h), 1.76 µM; in series [7] (Homo sapiens, Jurkat, 72 h), 1.64 µM; in [8] (Homo sapiens, 72 h), 1.52 µM.
Regarding `O=C(Nc1nc(-c2ccccc2)c(C(=O)c2ccccc2)s1)c1cc(Br)ccc1O` [compound 215, 5-Bromo-N-(5-benzoyl-4-phenylthiazol-2-yl)-2-hydroxybenzamide], the IC50 was found to be 2.76 µM in series [1] (Homo sapiens, MIA PaCa-2); 8.31 µM in [2] (Homo sapiens, A549); 4.98 µM in series [3] (Homo sapiens, HepG2).
